The values that follow come from paper PMC4326489, “Efficacy and pharmacokinetic evaluation of a novel anti-malarial compound (NP046) in a mouse model” (Malaria Journal, 2015).

This data set is described as follows: Plasma protein binding by ultracentrifugation. The class given is in vitro ADME. The conditions noted are these: read-out: PPB (plasma protein binding) (converted). As for the experimental part:
In this study, since the NSB > 5%, ultracentrifugation was used to assess the PPB property of NP046 [for the methodology see Additional file 3]. […] Procedure for the determination of PPB by Ultracentrifugation (procedure was adopted from Barré et al., 1985; with a slight modification). Thaw plasma aliquots in a water bath at 22 °C. Centrifuge plasma aliquots at 2000 g for 5 minutes, and decant and pool the supernatant. Prepare plasma and PBS samples at a high concentration (1000 ng/ml), and low concentration (10 ng/ml) for all the test compounds under investigation. The PBS samples were used to determine the response of the unbound (or free) drug, and were not subjected to ultracentrifugation. Plasma samples were incubated at 37 °C in a water bath for 20minutes to allow samples to reach physiological temperature, and then the samples were aliquoted into BECKMAN Quick-Seal centrifuge tubes (13 ml). Ultracentrifuge plasma samples at 2 x 10^5 g for 6 hours at 37 °C using BECKMAN L8-[…] ultracentrifuge (80Ti). The supernatant was extracted, and its response was compared with that of the PBS extract after being analysed by the validated LC-MS/MS bioanalytical drug assay methods stated in chapters 8 and 9. PPB% was calculated using the equation: Where T = total drug concentration; and F = free drug concentration.

`Oc1cc(CCCc2ccc(F)cc2)ccc1CN1CCCCC1` [NP046, 5-(3-(4-fluorophenyl)propyl)-2-(piperidin-1-ylmethyl)phenol]: for the setting “at 10 ng/ml”, the fraction unbound at 6 h, 10 ng/ml is 0.797. Also, where the note is “at 1000 ng/ml”, the fraction unbound at 6 h, 1000 ng/ml was 0.72.
